{
  "source": "ChEMBL document CHEMBL4842341",
  "about": "“Discovery of IACS-9779 and IACS-70465 as Potent Inhibitors Targeting Indoleamine 2,3-Dioxygenase 1 (IDO1) Apoenzyme” (J Med Chem, 2021)",
  "key": {"in vitro [1]": {"assay": "in vitro", "conditions": "human, liver microsomes"}, "in vivo [2]": {"assay": "in vivo", "conditions": "CD1, mouse, iv, 0.3 mg/kg"}, "in vivo [3]": {"assay": "in vivo", "conditions": "CD1, mouse, iv, 0.3 mg/kg", "remark": "listed apart in the source"}, "in vivo [4]": {"assay": "in vivo", "conditions": "CD1, mouse, iv, 0.3 mg/kg", "remark": "listed apart in the source"}, "in vivo [5]": {"assay": "in vivo", "conditions": "CD1, mouse, iv, 0.3 mg/kg", "remark": "listed apart in the source"}, "in vivo [6]": {"assay": "in vivo", "conditions": "CD1, mouse, po, 10 mg/kg"}, "in vivo [7]": {"assay": "in vivo", "conditions": "CD1, mouse, po, 10 mg/kg", "remark": "listed apart in the source"}, "in vivo [8]": {"assay": "in vivo", "conditions": "NSG, mouse, tumor, po, 125 mg/kg"}, "in vivo [9]": {"assay": "in vivo", "conditions": "NSG, mouse, plasma, po, 125 mg/kg"}, "in vitro [10]": {"assay": "in vitro", "conditions": "rat, liver microsomes"}, "in vivo [11]": {"assay": "in vivo", "conditions": "NSG, mouse, tumor, po, 125 mg/kg", "remark": "listed apart in the source"}, "in vivo [12]": {"assay": "in vivo", "conditions": "NSG, mouse, plasma, po, 125 mg/kg", "remark": "listed apart in the source"}, "[13]": {"assay": "Apparent permeability across apical side to basolateral side in wild type MDCK cells", "format": "ADME, cell-based, Canis lupus familiaris", "conditions": "dog"}, "[14]": {"assay": "Apparent permeability across basolateral side to apical side in MDCK cells", "format": "ADME, cell-based, Canis lupus familiaris", "conditions": "dog"}, "[15]": {"assay": "Apparent permeability across apical side to basolateral side in MDCK-MDR1 cells", "format": "ADME, cell-based, Canis lupus familiaris", "conditions": "dog"}, "[16]": {"assay": "Apparent permeability across basolateral side to apical side in MDCK-MDR1 cells", "format": "ADME, cell-based, Canis lupus familiaris", "conditions": "dog"}, "[17]": {"assay": "Half life in mouse plasma", "format": "ADME, cell-free"}},
  "data": [
    {"compound": "CCC(NC(=O)c1ccc(Cl)cc1)[C@H]1[C@@H]2C[C@@H](n3cnc4cccc(F)c4c3=O)C[C@@H]21", "note": "(some centres undefined)", "values": [
      {"measurement": "CLint scaled at 0.75 h, 1 µM", "setting": "in vitro [1]", "result": 0.7, "unit": "mL/min/kg"}
    ]},
    {"compound": "CCC(NC(=O)c1ccc(Cl)cc1)[C@H]1[C@@H]2C[C@@H](n3cnc4ccc(F)c(F)c43)C[C@@H]21", "note": "(some centres undefined)", "values": [
      {"measurement": "CLint scaled at 0.75 h, 1 µM", "setting": "in vitro [1]", "result": 18, "unit": "mL/min/kg"}
    ]},
    {"compound": "CCC(NC(=O)c1ccc(Cl)cc1)[C@@H]1[C@@H]2C[C@H](Oc3ccnc4ccc(F)cc34)C[C@@H]21", "note": "(some centres undefined)", "values": [
      {"measurement": "AUC(0-inf)", "setting": "in vivo [2]", "result": 51, "unit": "µM·h"},
      {"measurement": "half-life", "setting": "in vivo [3]", "result": 15, "unit": "h"},
      {"measurement": "Vd", "setting": "in vivo [4]", "result": 0.27, "unit": "L/kg"},
      {"measurement": "clearance", "setting": "in vivo [5]", "result": 0.233, "unit": "mL/min/kg"},
      {"measurement": "Cmax", "setting": "in vivo [6]", "result": 51, "unit": "µM"},
      {"measurement": "bioavailability", "setting": "in vivo [7]", "result": 146, "unit": "%"}
    ]},
    {"compound": "CCC(NC(=O)c1ccc(Cl)cc1)[C@H]1[C@@H]2C[C@@H](n3cc(C4CC4)nn3)C[C@@H]21", "note": "(some centres undefined)", "values": [
      {"measurement": "AUC(0-inf)", "setting": "in vivo [2]", "result": 2.8, "unit": "µM·h"},
      {"measurement": "half-life", "setting": "in vivo [3]", "result": 2.7, "unit": "h"},
      {"measurement": "Vd", "setting": "in vivo [4]", "result": 1.04, "unit": "L/kg"},
      {"measurement": "clearance", "setting": "in vivo [5]", "result": 4.67, "unit": "mL/min/kg"},
      {"measurement": "Cmax", "setting": "in vivo [6]", "result": 1.5, "unit": "µM"},
      {"measurement": "bioavailability", "setting": "in vivo [7]", "result": 22, "unit": "%"},
      {"measurement": "CLint scaled at 0.75 h, 1 µM", "setting": "in vitro [1]", "result": 6.5, "unit": "mL/min/kg"}
    ]},
    {"compound": "CC[C@@H](NC(=O)c1ccc(C#N)cc1)[C@H]1[C@@H]2C[C@@H](n3cnc4cc(F)c(F)cc43)C[C@@H]21", "values": [
      {"measurement": "concentration at 120 h", "setting": "in vivo [8]", "result": 52, "unit": "µM"},
      {"measurement": "concentration at 120 h", "setting": "in vivo [9]", "result": 49.3, "unit": "µM"}
    ]},
    {"compound": "O=C(C[C@H]1CC[C@@H](Oc2ccnc3ccccc23)CC1)Nc1ccc(Cl)cc1", "values": [
      {"measurement": "CLint scaled at 0.75 h, 1 µM", "setting": "in vitro [10]", "result": 455, "unit": "mL/min/kg"},
      {"measurement": "CLint scaled at 0.75 h, 1 µM", "setting": "in vitro [1]", "result": 44, "unit": "mL/min/kg"}
    ]},
    {"compound": "CCC(NC(=O)c1ccc(Cl)cc1)[C@H]1[C@@H]2C[C@@H](NC(=O)c3cncc(F)c3)C[C@@H]21", "note": "(some centres undefined)", "values": [
      {"measurement": "CLint scaled at 0.75 h, 1 µM", "setting": "in vitro [1]", "result": 13, "unit": "mL/min/kg"}
    ]},
    {"compound": "CC[C@@H](NC(=O)c1ccc(Cl)cc1)[C@H]1[C@@H]2C[C@@H](n3cnc4ccc(C#N)cc43)C[C@@H]21", "values": [
      {"measurement": "concentration at 120 h", "setting": "in vivo [11]", "result": 12, "unit": "µM"},
      {"measurement": "concentration at 120 h", "setting": "in vivo [12]", "result": 10.1, "unit": "µM"}
    ]},
    {"compound": "CCC(NC(=O)c1ccc(Cl)cc1)[C@@H]1[C@@H]2C[C@@H](Oc3ccnc4ccc(F)cc34)C[C@@H]21", "note": "(some centres undefined)", "values": [
      {"measurement": "CLint scaled at 0.75 h, 1 µM", "setting": "in vitro [1]", "result": 490, "unit": "mL/min/kg"}
    ]},
    {"compound": "CC[C@@H](NC(=O)c1ccc(Cl)c(F)c1)[C@H]1[C@@H]2C[C@@H](n3cnc4cc(F)c(F)cc43)C[C@@H]21", "values": [
      {"measurement": "concentration at 120 h", "setting": "in vivo [11]", "result": 11, "unit": "µM"},
      {"measurement": "concentration at 120 h", "setting": "in vivo [12]", "result": 4.1, "unit": "µM"}
    ]},
    {"compound": "O[C@H](C[C@H]1c2c(F)cccc2-c2cncn21)[C@H]1CC[C@H](O)CC1", "note": "[NAVOXIMOD]", "values": [
      {"measurement": "CLint scaled at 0.75 h, 1 µM", "setting": "in vitro [10]", "result": 39, "unit": "mL/min/kg"},
      {"measurement": "CLint scaled at 0.75 h, 1 µM", "setting": "in vitro [1]", "result": 11, "unit": "mL/min/kg"}
    ]},
    {"compound": "CCC(NC(=O)c1ccc(Cl)cc1)[C@H]1[C@@H]2C[C@@H](n3cnc(C4CC4)n3)C[C@@H]21", "note": "(some centres undefined)", "values": [
      {"measurement": "CLint scaled at 0.75 h, 1 µM", "setting": "in vitro [1]", "result": 2, "unit": "mL/min/kg"}
    ]},
    {"compound": "CCC(NC(=O)c1ccc(Cl)cc1)[C@@H]1[C@@H]2C[C@@H](Oc3ccnc4ccccc34)C[C@@H]21", "note": "(some centres undefined)", "values": [
      {"measurement": "Papp A→B", "setting": "[13]", "result": 3.63, "unit": "×10⁻⁶ cm/s"},
      {"measurement": "Papp B→A", "setting": "[14]", "result": 1.73, "unit": "×10⁻⁶ cm/s"},
      {"measurement": "Papp A→B", "setting": "[15]", "result": 1.86, "unit": "×10⁻⁶ cm/s"},
      {"measurement": "Papp B→A", "setting": "[16]", "result": 1.4, "unit": "×10⁻⁶ cm/s"},
      {"measurement": "half-life", "setting": "[17]", "result": 12.8, "unit": "h"},
      {"measurement": "CLint scaled at 0.75 h, 1 µM", "setting": "in vitro [10]", "result": 14, "unit": "mL/min/kg"},
      {"measurement": "CLint scaled at 0.75 h, 1 µM", "setting": "in vitro [1]", "result": 23, "unit": "mL/min/kg"}
    ]},
    {"compound": "O=C(C[C@H]1CC[C@@H](c2ccccc2)CC1)Nc1ccc(Cl)cc1", "values": [
      {"measurement": "CLint scaled at 0.75 h, 1 µM", "setting": "in vitro [10]", "result": 884, "unit": "mL/min/kg"},
      {"measurement": "CLint scaled at 0.75 h, 1 µM", "setting": "in vitro [1]", "result": 681, "unit": "mL/min/kg"}
    ]},
    {"compound": "CCC(NC(=O)c1ccc(Cl)cc1)[C@@H]1[C@@H]2C[C@H](Oc3ccnc4cc(F)ccc34)C[C@@H]21", "note": "(some centres undefined)", "values": [
      {"measurement": "CLint scaled at 0.75 h, 1 µM", "setting": "in vitro [1]", "result": 32, "unit": "mL/min/kg"}
    ]},
    {"compound": "CCC(NC(=O)c1ccc(Cl)cc1)[C@H]1[C@@H]2C[C@@H](n3cnc4cc(F)cnc43)C[C@@H]21", "note": "(some centres undefined)", "values": [
      {"measurement": "CLint scaled at 0.75 h, 1 µM", "setting": "in vitro [1]", "result": 0.46, "unit": "mL/min/kg"}
    ]},
    {"compound": "CCC(NC(=O)c1ccc(Cl)cc1)[C@H]1[C@@H]2C[C@@H](n3cnc4ncc(C#N)cc43)C[C@@H]21", "note": "(some centres undefined)", "values": [
      {"measurement": "CLint scaled at 0.75 h, 1 µM", "setting": "in vitro [1]", "result": 4.5, "unit": "mL/min/kg"}
    ]},
    {"compound": "O=C(Nc1ccc(Cl)cc1)N1CCC(CCc2ccnc3ccccc23)CC1", "values": [
      {"measurement": "CLint scaled at 0.75 h, 1 µM", "setting": "in vitro [10]", "result": 170, "unit": "mL/min/kg"},
      {"measurement": "CLint scaled at 0.75 h, 1 µM", "setting": "in vitro [1]", "result": 115, "unit": "mL/min/kg"}
    ]},
    {"compound": "CC(C(=O)Nc1ccc(Cl)cc1)N1CC(COc2ccnc3ccccc23)C1", "note": "(centres undefined)", "values": [
      {"measurement": "CLint scaled at 0.75 h, 1 µM", "setting": "in vitro [10]", "result": 526, "unit": "mL/min/kg"},
      {"measurement": "CLint scaled at 0.75 h, 1 µM", "setting": "in vitro [1]", "result": 227, "unit": "mL/min/kg"}
    ]}
  ]
}
